Measured values from the PolyMetriX glass transition set.

| Compound | glass transition temperature [°C] |
| --- | --- |
| *Oc1c(F)c(F)c(Oc2c(F)c(F)c3c(c2F)C(=O)N(c2c(F)c(F)c(F)c(N4C(=O)c5c(F)c(*)c(F)c(F)c5C4=O)c2F)C3=O)c(F)c1F (repeat unit) | 309.00 |
| *c1ccc2c(c1)C(=O)N(c1ccc(N3C(=O)c4ccc(C(*)(C(F)(F)F)C(F)(F)F)cc4C3=O)cc1C(F)(F)F)C2=O (repeat unit) | 366.00 |
| *Oc1cccc(C(C)(C)c2ccc(Oc3ccc4c(c3)C(=O)N(c3cccc(N5C(=O)c6ccc(*)cc6C5=O)c3)C4=O)cc2)c1 (repeat unit) | 215.00 |
| *Oc1cccc(S(=O)(=O)c2ccc(Oc3ccc4c(c3)C(=O)N(c3cccc(N5C(=O)c6ccc(*)cc6C5=O)c3)C4=O)cc2)c1 (repeat unit) | 265.00 |

Remark: another data set of the same source

| Compound | glass transition temperature [°C] |
| --- | --- |
| *c1c(C)cc(-c2cc(C)c(N3C(=O)c4cccc(Oc5ccc(C(C)(C)c6ccc(Oc7cccc8c7C(=O)N(*)C8=O)cc6)cc5)c4C3=O)c(C)c2)cc1C (repeat unit) | 265.00 |
| *Oc1cccc(NC(=O)CCCCC(=O)Nc2ccc(*)cc2)c1 (repeat unit) | 160.00 |
| *C(=O)c1ccc2c(c1)C(=O)N(c1cc(C(=O)c3ccccc3)cc(N3C(=O)c4ccc(*)cc4C3=O)c1)C2=O (repeat unit) | 282.00 |
| *[O][Sn]([CH2]CCC)([CH2]CCC)[O]C(=O)CCCCC(*)=O (repeat unit) | 110.00 |
| *C(=O)OCCCCCOC(=O)c1ccc(NC(=O)c2ccc(N3C(=O)c4ccc(*)cc4C3=O)cc2)cc1 (repeat unit) | 129.00 |
| *Oc1ccc(N(c2ccc(OC)cc2)c2ccc3ccc(N(c4ccc(*)cc4)c4ccc(OC)cc4)cc3c2)cc1 (repeat unit) | 197.00 |
| *Oc1ccc(P(C)(=O)c2ccc(Oc3ccc(C(c4ccc(*)cc4)(C(F)(F)F)C(F)(F)F)cc3)cc2)cc1 (repeat unit) | 208.00 |
| *c1ccc(Oc2ccc(Sc3ccc(Oc4ccc(N5C(=O)c6ccc(Oc7ccc(-c8ccc(Oc9ccc%10c(c9)C(=O)N(*)C%10=O)cc8)cc7)cc6C5=O)cc4)cc3)cc2)cc1 (repeat unit) | 206.00 |
| *c1ccc(-c2nc3ccc(S(=O)(=O)c4ccc5nc(*)c(-c6ccccc6)nc5c4)cc3nc2-c2ccccc2)cc1 (repeat unit) | 345.00 |
| *CC1CCCC(CN2C(=O)c3ccc(C(=O)c4ccc5c(c4)C(=O)N(*)C5=O)cc3C2=O)C1 (repeat unit) | 213.00 |
| *c1ccc(-n2c(=O)c3cc4c(=O)n(*)c(=O)c4cc3c2=O)c(S(=O)(=O)[O][Na])c1 (repeat unit) | 227.00 |
| *CC(*)C(=O)Oc1ccc([N+](=O)[O-])cc1 (repeat unit) | 73.30 |
| *C(=O)Nc1ccc(S(=O)(=O)c2ccc(NC(=O)c3ccc4[nH]c(-c5cc(-c6nc7cc(*)ccc7[nH]6)cc(N6C(=O)c7ccccc7C6=O)c5)nc4c3)cc2)cc1 (repeat unit) | 325.00 |
| *CC(C)(N=C=O)C1C(=O)OC(=O)C1* (repeat unit) | 100.00 |
| *Oc1ccc(C(CCC)(CCC)c2ccc(OC(*)=O)c(C)c2)cc1C (repeat unit) | 101.00 |
| *CCC(*)=O (repeat unit) | 15.00 |
| *OC(=O)c1ccc(/N=N/c2ccc(C(=O)OC3COC4C(*)COC34)cc2)cc1 (repeat unit) | 98.00 |
| *Oc1c(F)c(F)c(-c2c(F)c(F)c(Oc3ccc(C(c4ccc(*)cc4)(C(F)(F)F)C(F)(F)F)cc3)c(F)c2F)c(F)c1F (repeat unit) | 167.00 |
| *CC(*)OC(=O)c1cccc([N+](=O)[O-])c1 (repeat unit) | 93.00 |
| *CC(*)(C)C(=O)OCCN(CCCC)c1ccc(/N=N/c2ccc(S(=O)(=O)Nc3nccs3)cc2)cc1 (repeat unit) | 53.00 |
| *CC(*)C(=O)Oc1c(F)c(F)c(F)c(F)c1F (repeat unit) | 64.00 |

| Compound | glass transition temperature [°C] |
| --- | --- |
| *Oc1ccc(NC(=O)c2cc(-c3ccc(C(=O)O)c(C(=O)Nc4ccc(*)cc4)c3)ccc2C(=O)O)cc1 (repeat unit) | 184.40 |
| *CCCCCOC(=O)c1ccc(-c2ccc(-c3ccc(C(=O)O*)cc3)cc2)cc1 (repeat unit) | 40.00 |
| *CC(=O)Nc1ccc(C2(c3ccc(NC(=O)Cn4c(=O)c5cc6c(=O)n(*)c(=O)c6cc5c4=O)cc3)c3ccccc3-c3ccccc32)cc1 (repeat unit) | 350.00 |
| */C(CCCCCC)=C(/*)c1ccccc1 (repeat unit) | 200.00 |
| *c1ccc(/C=C/c2ccc(-n3c(=O)c4cc5c(=O)n(*)c(=O)c5cc4c3=O)cc2S(=O)(=O)[O][Na])c(S(=O)(=O)[O][Na])c1 (repeat unit) | 228.00 |
| *CC(*)c1ccc(COc2ccc(-c3ccc(-c4ccc(-c5ccc(CCCCCC)s5)s4)c4nsnc34)cc2)cc1 (repeat unit) | 122.00 |
| */C(C#N)=C/c1cc(OCCCCCCCC)c(/C=C(\C#N)c2cc(OCCCCCCCC)c(*)cc2OC)cc1OC (repeat unit) | 174.00 |
| *C1C(=O)N(C(C)(C)C)C(=O)C1* (repeat unit) | 195.00 |
| *C(C(=O)OC)C(*)C(=O)OC(C)(C)C (repeat unit) | 84.00 |
| *CC(*)C(=O)OC1CCCCCCCCCCC1 (repeat unit) | 37.00 |
| *Oc1c(C)cc(*)cc1C(C)CCCCCCCC (repeat unit) | 20.00 |
| *CC(*)c1ccc(B(Oc2ccc(-c3c(F)c(F)c(F)c(F)c3F)c3cccnc23)c2ccc(C(C)(C)C)cc2)cc1 (repeat unit) | 245.00 |
| *CC(*)c1ccc([SiH](C)C)cc1 (repeat unit) | 105.00 |
| *Oc1ccc(C(C)(C)c2ccc(OC(=O)OCCCCCOC(*)=O)cc2)cc1 (repeat unit) | 49.50 |
| *C(=O)Nc1cccc(NC(=O)c2ccc3c(c2)C(=O)N(c2cc(-c4nc5ccccc5s4)cc(N4C(=O)c5ccc(*)cc5C4=O)c2)C3=O)n1 (repeat unit) | 358.00 |
| *CC(O)COc1cccc(O*)c1 (repeat unit) | 65.00 |
| *Nc1ccc(NC(=O)c2ccc(NC(=O)c3cc(NC(=O)C45CC6CC(CC(C6)C4)C5)cc(C(*)=O)c3)cc2)cc1 (repeat unit) | 365.00 |
| *c1ccc(Oc2ccc(C(=O)c3cccc(C(=O)c4ccc(Oc5ccc(-c6nc(-c7ccccn7)nnc6*)cc5)cc4)c3)cc2)cc1 (repeat unit) | 202.00 |
| *c1ccc(C(C)(C)c2ccc(N3C(=O)c4ccc(Oc5ccc6c(c5)C(=O)N(*)C6=O)cc4C3=O)cc2)cc1 (repeat unit) | 265.00 |
| *C(=O)c1ccc2c(c1)C(=O)N(c1ccc(Oc3ccc(NC(=O)c4cccc(C(=O)Nc5ccc(Oc6ccc(N7C(=O)c8ccc(*)cc8C7=O)cc6)cc5)c4)cc3)cc1)C2=O (repeat unit) | 232.00 |
